Reference: patent publication US20240293361A1, “Use of Statins to Treat or Prevent Drug-Induced Hearing Loss” (The United States of America, as represented by the …, priority 2020, published 2024)
Values joined by “and” are separate entries in the source; they are usually repeats but may differ in a detail not shown here. Equal values may be shown once. “Also recorded” adds a separate entry of the source.

Assays:
[1] = Schachter et al., 2005; cited from earlier work
[2] = system: cisplatin-induced hearing loss in patients with head and neck cancer; test: Clinical hearing status (PTA of 1, 2 and 4 kHz) at follow-up after cisplatin therapy; assay type: in vivo, human
[3] = system: spiral ganglion neurons (SGN); settings: mouse model of noise-induced hearing loss; cited from earlier work
[4] = system: heme oxygenase-1 (Hmox-1); settings: mice; cited from earlier work
[5] = system: cisplatin-induced hearing loss in mice; settings: cyclic administration of cisplatin; ABR testing; cited from earlier work
[6] = system: cisplatin-induced hearing loss in patients with head and neck cancer; settings: in vivo
[7] = system: cisplatin-induced hearing loss in patients with head and neck cancer
From the text: (§1) The primary outcome measure was the difference in incidence of a change in hearing between the baseline hearing test and the post-treatment hearing test, per ear, as defined by established ototoxicity grading scales. These scales report subjects who transition from normal hearing to hearing loss as well as those who transition from some hearing loss to more hearing loss. The criteria of two different grading scales was applied to the dataset (Table 4). The NCI CTCAEv5.0(34) classifies adverse changes in hearing based on auditory threshold shifts across a 1-8 KHz frequency range. TUNE ototoxicity grading criteria (Theunissen et al., 2014), which incorporate extended high frequency (EHF) data was also applied (see Table 5, FIG. 5).
Changes in hearing were primarily defined using CTCAEv5.0 criteria (Theunissen et al., 2014). However, cisplatin-induced ototoxicity is characterized initially as a high frequency (above 8 kHz) hearing loss that can spread to include lower frequencies (Brock et al., 1991). Therefore, the TUNE grading scale (Theunissen et al., 2014) was applied, which reports incidence and severity of hearing loss based on shifts in auditory thresholds across two frequency ranges: 1-4 kHz and 8-12.5 kHz (Table 4). The higher-frequency range of the TUNE scale was modified to include 6, 8 and 12.5 kHz due to insufficient data at 10 kHz in the dataset. Because many of the subjects had some hearing loss at baseline, the TUNE criteria was further modified so that Grades 3 and 4 utilized threshold shift data instead of absolute thresholds. A TUNE Grade 3 was redefined for this study as a ≥35 dB PTA threshold shift from the baseline to the post-treatment audiogram, and similarly Grade 4 was redefined as a ≥50 dB PTA threshold shift.
(§2) Changes in hearing, defined by TUNE criteria, were analyzed using categorical incidence (per ear) data. The incidence and severity distribution of a clinically meaningful hearing change, per ear, relative to statin use was analyzed using chi-square analyses (SAS PROC FREQ procedure). […] A logistic regression analysis (SAS PROC LOGISTIC procedure) with calculation of odds ratios and 95% confidence intervals was performed to identify associations between TUNE-defined changes in hearing and statin use after adjustment for significant covariates.

[8] = cited from earlier work; for hepatoselectivity: compared with lipophilic agents
[9] = system: patients treated with atorvastatin; settings: cited from earlier work
[10] = system: cytochrome P(450) enzymes; settings: Schachter et al., 2005; cited from earlier work
patients with HNSCC = test: 3-year overall and disease-free survival (Kaplan-Meier, log-rank); assay type: in vivo, human; settings: URMC data n=175; log-rank (Mantel-Cox)
Experimental: Overall survival and disease-free survival were calculated as Kaplan-Meier curves using Prism v8 software on all available data from URMC at up to 3 years post treatment (N=175). Survival curves were compared using the log-rank (Mantel-Cox) test. Cochlear radiation dose data presented in FIG. 6 were analyzed using Pearson R and Spearman R correlation analysis within Prism v8.
Overall survival at 3 years was approximately 80% (FIG. 4). An exact median survival time could not be calculated due to the number of patients censored/lost to follow-up.

[11] = system: cisplatin-induced hearing loss in patients with head and neck cancer; remark: listed apart in the source
From the text: as §1
as §2, with “The primary outcome measure was based on changes” for “Changes”, “hearing as” for “hearing,”, “CTCAEv5.0 scale criteria (see Table 4) and” for “TUNE criteria,”, “CTCAE-defined” for “TUNE-defined”

[12] = system: low-density lipoprotein cholesterol; settings: clinical studies, comparison among statins; cited from earlier work
[13] = package insert, rate greater than placebo
[14] = controlled for cumulative cisplatin dose and baseline hearing

SMILES: CC[C@H](C)C(=O)O[C@H]1C[C@@H](C)C=C2C=C[C@H](C)[C@H](CC[C@@H]3C[C@@H](O)CC(=O)O3)[C@H]21 [lovastatin]
- lipophilicity [1]: relatively lipophilic
- hearing status at follow-up: Mild (PTA >20, <40), number of ears ([2]; post-cisplatin therapy): 4 No. Ears
- hearing status at follow-up: Mild (PTA >20, <40), percent of ears ([2]; post-cisplatin therapy): (100.00) %
- hearing status at follow-up: Moderate (PTA ≥40, ≤70), number of ears ([2]; post-cisplatin therapy): 0 No. Ears
- hearing status at follow-up: Normal (PTA ≤20), number of ears ([2]; post-cisplatin therapy): 0 No. Ears
- hearing status at follow-up: Profound (PTA ≥95), number of ears ([2]; post-cisplatin therapy): 0 No. Ears
- hearing status at follow-up: Severe (PTA >70, <95), number of ears ([2]; post-cisplatin therapy): 0 No. Ears
- elongation of SGN processes [3]: promoted the elongation of SGN processes
- Hmox-1 mRNA [4]: induced Hmox-1 mRNA
- effect on cisplatin-induced hearing loss / ototoxicity in mice [5]: reduces cisplatin-induced hearing loss; also recorded: reduced cisplatin ototoxicity

SMILES: N.N.[Cl][Pt][Cl] [cisplatin]
- high-frequency threshold shift after cisplatin therapy [6]: 13.7 dB
- individuals with clinically meaningful hearing loss after cisplatin therapy, TUNE criteria ([7]; in vivo): up to 53%

SMILES: CC(C)n1c(/C=C/C(O)CC(O)CC(=O)O)c(-c2ccc(F)cc2)c2ccccc21 (stereo not drawn) [fluvastatin]
- lipophilicity [1]: relatively lipophilic
- elimination half-life ([8]; Schachter et al., 2005): 1 h

SMILES: CC(C)c1c(C(=O)Nc2ccccc2)c(-c2ccccc2)c(-c2ccc(F)cc2)n1CC[C@@H](O)C[C@@H](O)CC(=O)[O-].CC(C)c1c(C(=O)Nc2ccccc2)c(-c2ccccc2)c(-c2ccc(F)cc2)n1CC[C@@H](O)C[C@@H](O)CC(=O)[O-].[Ca+2] [atorvastatin calcium]
- incidence of persistent serum transaminase elevations, 10 mg ([9]; human, in vivo): 0.2%
- incidence of persistent serum transaminase elevations, 20 mg ([9]; human, in vivo): 0.2%
- incidence of persistent serum transaminase elevations, 40 mg ([9]; human, in vivo): 0.6%
- incidence of persistent serum transaminase elevations, 80 mg ([9]; human, in vivo): 2.3%
- patients with persistent elevations (>3 times ULN on 2 or more occasions) in serum transaminases ([9]; human, in vivo): 0.7%

SMILES: CC[C@H](C)C(=O)O[C@H]1C[C@H](O)C=C2C=C[C@H](C)[C@H](CC[C@@H](O)C[C@@H](O)CC(=O)O)[C@H]21 [pravastatin]
- lipophilicity [1]: relatively hydrophilic
- hearing status at follow-up: Mild (PTA >20, <40), number of ears ([2]; post-cisplatin therapy): 8 No. Ears
- hearing status at follow-up: Mild (PTA >20, <40), percent of ears ([2]; post-cisplatin therapy): (33.33) %
- hearing status at follow-up: Moderate (PTA ≥40, ≤70), number of ears ([2]; post-cisplatin therapy): 6 No. Ears
- hearing status at follow-up: Moderate (PTA ≥40, ≤70), percent of ears ([2]; post-cisplatin therapy): (25.00) %
- hearing status at follow-up: Normal (PTA ≤20), number of ears ([2]; post-cisplatin therapy): 9 No. Ears
- hearing status at follow-up: Normal (PTA ≤20), percent of ears ([2]; post-cisplatin therapy): (37.50) %
- hearing status at follow-up: Profound (PTA ≥95), number of ears ([2]; post-cisplatin therapy): 0 No. Ears
- hearing status at follow-up: Severe (PTA >70, <95), number of ears ([2]; post-cisplatin therapy): 1 No. Ears
- hearing status at follow-up: Severe (PTA >70, <95), percent of ears ([2]; post-cisplatin therapy): (4.17) %
- metabolism by the cytochrome P(450) system [10]: not significantly metabolized
- hepatoselectivity ([8]; Schachter et al., 2005): greater hepatoselectivity

SMILES: O=C(O)C[C@H](O)C[C@H](O)/C=C/c1c(C2CC2)nc2ccccc2c1-c1ccc(F)cc1 [pitavastatin]
- lipophilicity [1]: relatively lipophilic
- change of hearing status over cisplatin therapy, in words ([2]; n=2 subjects): started and ended therapy with a bilateral mild hearing loss
- hearing status at follow-up: Mild (PTA >20, <40), number of ears ([2]; post-cisplatin therapy): 4 No. Ears
- hearing status at follow-up: Mild (PTA >20, <40), percent of ears ([2]; post-cisplatin therapy): (100.00) %
- hearing status at follow-up: Moderate (PTA ≥40, ≤70), number of ears ([2]; post-cisplatin therapy): 0 No. Ears
- hearing status at follow-up: Normal (PTA ≤20), number of ears ([2]; post-cisplatin therapy): 0 No. Ears
- hearing status at follow-up: Profound (PTA ≥95), number of ears ([2]; post-cisplatin therapy): 0 No. Ears
- hearing status at follow-up: Severe (PTA >70, <95), number of ears ([2]; post-cisplatin therapy): 0 No. Ears
- metabolism by the cytochrome P(450) system [10]: limited metabolism

SMILES: CC(C)c1c(C(=O)Nc2ccccc2)c(-c2ccccc2)c(-c2ccc(F)cc2)n1CC[C@@H](O)C[C@@H](O)CC(=O)O [atorvastatin]
- safety and tolerability of the 20 mg dose ([9]; 20 mg once daily, adults, literature, listed as Atorvastatin): very low incidence of adverse effects
- Food and Drug Administration pregnancy classification ([9]; human, in vivo): Category X
- alanine aminotransferase increase leading to treatment discontinuation [9, 13]: 0.4%
- diarrhea leading to treatment discontinuation [9, 13]: 0.5%
- hepatic enzyme increase leading to treatment discontinuation [9, 13]: 0.4%
- myalgia leading to treatment discontinuation [9, 13]: 0.7%
- nausea leading to treatment discontinuation [9, 13]: 0.4%
- hearing status at follow-up: Mild (PTA >20, <40), number of ears ([2]; post-cisplatin therapy): 49 No. Ears
- hearing status at follow-up: Mild (PTA >20, <40), percent of ears ([2]; post-cisplatin therapy): (50.52) %
- hearing status at follow-up: Moderate (PTA ≥40, ≤70), number of ears ([2]; post-cisplatin therapy): 21 No. Ears
- hearing status at follow-up: Moderate (PTA ≥40, ≤70), percent of ears ([2]; post-cisplatin therapy): (21.65) %
- hearing status at follow-up: Normal (PTA ≤20), number of ears ([2]; post-cisplatin therapy): 26 No. Ears
- hearing status at follow-up: Normal (PTA ≤20), percent of ears ([2]; post-cisplatin therapy): (26.80) %
- hearing status at follow-up: Profound (PTA ≥95), number of ears ([2]; post-cisplatin therapy): 3 No. Ears
- hearing status at follow-up: Profound (PTA ≥95), percent of ears ([2]; post-cisplatin therapy): (3.00) %
- hearing status at follow-up: Severe (PTA >70, <95), number of ears ([2]; post-cisplatin therapy): 1 No. Ears
- hearing status at follow-up: Severe (PTA >70, <95), percent of ears ([2]; post-cisplatin therapy): (1.03) %
- elongation of SGN processes [3]: promoted the elongation of SGN processes
- 3-year disease-free survival compared with non-statin users (patients with HNSCC): no significant differences
- 3-year overall survival compared with non-statin users (patients with HNSCC): did not have a significant effect on patient survival; also recorded: no significant differences
- hearing loss, CTCAEv5.0 Grade ≥2 criteria, retrospective data used for power analysis ([11]; atorvastatin (20 mg) group as worded): ~16.7%
- less likely to acquire a CTCAE-defined cisplatin-induced hearing loss than a non-statin user [11, 14]: 53%
- less likely to develop a cisplatin-related hearing loss, once daily atorvastatin vs not on atorvastatin ([11]; observational data): 45%
- OR for cisplatin-related hearing loss, once daily atorvastatin vs not on atorvastatin ([11]; observational data, 95% CI: 0.327-0.942): 0.55
- incidence of a CTCAEv5.0-grade hearing loss, patients ([11]; per patient, in at least one ear): 46%
- incidence of CTCAE grade ≥2 hearing change ([11]; percentage of ears): 9.7%
- incidence of CTCAE Grade 1 or higher hearing loss ([11]; percentage of ears, full cohort): 31.2% and 31%
- incidence of CTCAE-defined hearing loss, chemoradiation therapy ([11]; subgroup, % of ears): 31.2%
- incidence of CTCAE-defined hearing loss, higher cumulative cisplatin doses (>200 mg/m^2) ([11]; subgroup, % of ears): 31.7%
- incidence of CTCAE-defined hearing loss, males ([11]; subgroup, % of ears): 30.4%
- incidence of CTCAE-defined hearing loss, mild hearing loss at baseline ([11]; subgroup, % of ears): 26.8%
- less likely to acquire a TUNE-defined cisplatin-induced hearing loss than a non-statin user [7, 14]: 56%
- incidence of TUNE grade 2 or higher change in hearing ([7]; in vivo): 14.4%
- incidence of TUNE Grade 1 or higher hearing loss ([7]; percent of ears): 34%

SMILES: CCC(C)(C)C(=O)O[C@H]1C[C@@H](C)C=C2C=C[C@H](C)[C@H](CC[C@@H]3C[C@@H](O)CC(=O)O3)[C@H]21 [simvastatin]
- half-life ([8]; Sirtori et al., 2014): 12 h

SMILES: CC(C)c1nc(N(C)S(C)(=O)=O)nc(-c2ccc(F)cc2)c1/C=C/[C@@H](O)C[C@@H](O)CC(=O)O [rosuvastatin]
- lipophilicity [1]: relatively hydrophilic
- effectiveness for reducing low-density lipoprotein cholesterol [12]: most effective
- hearing status at follow-up: Mild (PTA >20, <40), number of ears ([2]; post-cisplatin therapy): 14 No. Ears
- hearing status at follow-up: Mild (PTA >20, <40), percent of ears ([2]; post-cisplatin therapy): (63.64) %
- hearing status at follow-up: Moderate (PTA ≥40, ≤70), number of ears ([2]; post-cisplatin therapy): 6 No. Ears
- hearing status at follow-up: Moderate (PTA ≥40, ≤70), percent of ears ([2]; post-cisplatin therapy): (27.27) %
- hearing status at follow-up: Normal (PTA ≤20), number of ears ([2]; post-cisplatin therapy): 2 No. Ears
- hearing status at follow-up: Normal (PTA ≤20), percent of ears ([2]; post-cisplatin therapy): (9.09) %
- hearing status at follow-up: Profound (PTA ≥95), number of ears ([2]; post-cisplatin therapy): 0 No. Ears
- hearing status at follow-up: Severe (PTA >70, <95), number of ears ([2]; post-cisplatin therapy): 0 No. Ears
- metabolism by the cytochrome P(450) system [10]: not significantly metabolized
- hepatoselectivity ([8]; Schachter et al., 2005): greater hepatoselectivity
